{ppp} = triphosphate
Assays:
[1] = system: HBV cccDNA; assay: Subcellular compartment analysis of PF-RC DNA and cccDNA (synchronous infection, cell fractionation); format: cell-based, HBV (Genotype D); conditions: HepG2-hNTCP, treated from time 0 through 3 dpi; F7 10 μM, poly-U/UC PAMP 100 ng/ml
Experimental: FIG. 4A-4D illustrate subcellular compartment analysis of antiviral activity. (4A) and (4C) Scheme of HBV infection with F7 treatment (4A) or poly-U/UC PAMP treatment (4C). HepG2-hNTCP cultures were inoculated with HBV at moi 1000 Geq/cell for 24 hr. On treatment day 0 the cultures received F7 (10 μM) or poly-U/UC PAMP (100 ng/ml). Cells were harvested for production of Hirt extracts at each time point shown through three days. Parallel cultures were harvested for Western blot analysis to monitor Lamin B1 and Calnexin as markers of […] and cytosol respectively. (4B) and (4D) DNA was analyzed by Southern blot using HBV-specific DNA probe. Viral protein-free DNAs (protein-free Relaxed Circular DNA [PF-RC DNA]and cccDNA) are indicated. The positions of mass markers are indicated. Lower panels show Western blot of Lamin B1 and Calnexin abundance.
Cells were inoculated with HBV for 6 hours at 4° C., then the inoculum was removed, cells rinsed and placed in 37° C. media to initiate synchronous infection (time 0), at which time the cells were treated with F7 (FIG. 4A), or poly-U/UC PAMP (FIG. 4C) through 3 dpi. Whole cell (W), nuclear (N), and cytoplasmic (C) extracts were harvested over the time course, at 3 and 6 hours post-infection, and daily over 1-3 dpi, and PF-RC and cccDNA abundance were analyzed by Southern blot. […] For poly-U/UC PAMP treatment, cells were also harvested over a similar time course (see FIG. 4C).
HBV entry assay and cell fractionation: Cells were inoculated with HBV in presence of 4% PEG for 6 hours at 4°C. To assess HBV entry, inoculum was removed by washing with PBS that included proteinase K and cells were shifted to 37° C. post-attachment. After incubation and treatment, the cells were lysed in a hypotonic buffer (100 MM HEPES, 15 mM MgCl2, 100 mM KCL and Nonidet P-40), and homogenized with a dounce homogenizer. The cytoplasmic fraction was separated from nuclei pellet by centrifugation (6000×g for 5 min at 4° C.). Nuclei pellet was resuspended in extraction buffer (20 mM HEPES, 15 mM MgCl2, 420 mM NaCl, 0.2 mM EDTA and 25% (v/v) Glycerol including DTI and protease inhibitor cocktail). Each cellular fraction was mixed with 1% SDS (v/v) and protein-free DNA was extracted using the Hirt extraction method.

[2] = system: IRF3; assay: Immunofluorescence analysis of IRF3 translocation; format: cell-based, human; conditions: HepG2-hNTCP cells, 24 hours; F7 10 μM; poly-U/UC PAMP or X-RNA 200 ng/ml in liposome
[3] = system: HBV cccDNA; assay: Decay kinetics of established cccDNA and HBsAg secretion under treatment from 3 dpi to 20 dpi; format: cell-based, HBV (Genotype D); conditions: HepG2-hNTCP; for production and secretion of HBsAg / cccDNA levels over treatment time course (Southern blot, qPCR): treatment from 3 dpi through 20 dpi; for cccDNA levels over treatment time course (Southern blot, qPCR) / delay before cccDNA starts decreasing (τ) / half-life of cccDNA (t1/2): ETV 500 nM, F7 10 μM, poly-U/UC 100 ng/ml; for delay before cccDNA starts decreasing (τ) / half-life of cccDNA (t1/2): treatment from 3 dpi, model fit of RT-qPCR data, three replicates
Experimental: (5A) HBV infection and treatment schedule. On day 0 HepG2-hNTCP cells were infected with HBV at moi of 1000 Geq/cell, incubated for 24 hr, and media was replaced. On day three the cells were harvested or treated with DMSO, ETV (500 nM), F7 (10 μM), poly-U/UC (100 ng/ml), or with ETC combination with F7 or poly-U/UC, PAMP. Cells were harvested at the indicated points over a 20-day time course. (5B), (5C) DNA was isolated by Hirt extract and subjected to Southern blot analysis using an HBV-specific DNA probe. Percentage values below each lane indicate the relative amount of cccDNA compared to day three control prior to each treatment. The positions of mass markers are indicated. (5D) cccDNA levels were measured by RT-qPCR. Relative cccDNA values to mitochondrial DNA (MT-CO3) are shown. Statistical significance was determined using Student's t test. Data are presented as mean standard deviation (SD), *P<0.01, **P<0.005, ***P<0.001 and ns=non-significant (E) Half-life of cccDNA from RT-qPCR analyses was estimated from the simultaneous fitting of three replicates under each treatment strategy. C(t) is the % values of cccDNA at time ‘t’ post-treatment, C(0) is the % values of cccDNA at the start of the treatment. (5F) HBsAg across the time course for each treatment series. Statistical significance as determined using Student's t test. Data are presented as mean standard deviations (SD), **P<0.005, and ns=non-significant.
ETV is a nucleoside analog that prevents the viral reverse transcription and replication of new synthesized HBV DNAs, thereby preventing the replenishment of cccDNA by de novo formation. ETV was applied to HBV-infected cultures at a 100-fold IC50 (Langley, D. R., et al. (2007). Inhibition of Hepatitis B Virus Polymerase by Entecavir. Journal of virology 81, 3992-4001) thereby allowing for the measurement of cccDNA half-life under conditions in which levels are sustained only from the initial cccDNA pool. Cells were then harvested over a treatment time course, and DNA extracts were analyzed by Southern blot and qPCR assay. […] J Hepatol 69, 1231-1241). […] Enhanced cccDNA decay kinetics by F7 treatment was also confirmed by RT-PCR analysis (FIG. 5D). […] Thus, F7 and poly-U/UC PAMP impart the therapeutic decay of established cccDNA.
Reverse transcription quantitative real time qPCR (RT-qPCR) analysis: Total cellular RNAs were extracted from cells using TRIZOL reagent and the manufacturers protocol (Invitrogen). cDNA was synthesized from the purified RNA by both random and oligo (dT) priming using iScript select cDNA synthesis kit (Biorad, Inc.). For HBV cccDNA expression analysis, total DNA was extracted using the DNeasy kit (QIAGEN). For selective cccDNA PCR analysis, isolated DNAs were treated with 10 Units of T5 exonuclease (NEB) for 30 min in 10 μl of reaction volume in 37° C., followed by heat-inactivation at 95° C. for 5 min and 4-fold dilution with Nuclease-free water. For extra-cellular HBV DNA quantification, an external HBV plasmid standard was used to program the PCR (Ko, C., et al. (2018), supra).

Molecule | PF-RC DNA in subcellular fractions, Southern blot [1] | cccDNA accumulation, Southern blot [1] | innate immune activation marked by IRF3 translocation into the nucleus [2] | production and secretion of HBsAg [3] | cccDNA levels over treatment time course (Southern blot, qPCR) [3] | delay before cccDNA starts decreasing (τ) [3] | half-life of cccDNA (t1/2) [3]
O=C(Nc1ccc2nc(NC(=O)c3ccc4ccccc4c3)sc2c1)c1ccccc1 [F7, N-(6-benzamido-1,3-benzothiazol-2-yl)naphthalene-2-carboxamide] | accumulation was reduced after 2-3 dpi | delayed and reduced | specifically induced innate immune activation | suppressed HBsAg secretion | stimulated the decay of cccDNA | 4.0 days | 209 h
poly-U/UC PAMP: ~100 nt PAMP motif from the HCV genome comprising 5′ppp and the poly U/UC region, recognized by RIG-I; formulated in liposome (nucleic acid, RNA, 5' {ppp}, backbone and methylation of C not given here; formulated in liposome, ~100 nt PAMP motif from the HCV genome comprising 5′ppp and the poly U/UC region, recognized by RIG-I; formulated in liposome) GGCCAUCCUGUUUUUUUCCCUUUUUUUUUUUCUUUUUUUUUUUUUUUUUUUUUUUUUUUUUUUUUUCUCCUUUUUUUUUCCUCUUUUUUUCCUUUUCUUUCCUUU | Nuclear PF-RC DNA levels were reduced | reduction of cccDNA | specifically induced innate immune activation | suppressed HBsAg secretion | reduced the cccDNA abundance | 3.8 days | 185 h

— patent US20220241314A1, “COMPOSITIONS AND METHODS FOR TREATMENT OF HEPATITIS B VIRUS INFECTION” (priority 2019, published 2022)
